Columns and labels:
[1] = AA2734_IC50_IP (Table 4, assay code not explained); details: internal assay code
[2] = AA5225_IC50_IP (Table 4, assay code not explained); details: internal assay code
[3] = system: production of TNF by monocytes activated with bacterial lipopolysaccharide (LPS); experiment: Lipopolysaccharide-activated monocyte TNF production assay (whole blood monocyte assay, LPS induced TNF release); type: cell-based; details: Homo sapiens
Experimental: Lipopolysaccharide-Activated Monocyte TNF Production Assay
Test compounds were evaluated in vitro for the ability to inhibit the production of TNF by monocytes activated with bacterial lipopolysaccharide (LPS). Fresh residual source leukocytes (a byproduct of plateletpheresis) were obtained from a local blood bank, and peripheral blood mononuclear cells (PBMCs) were isolated by density gradient centrifugation on Ficol-Paque Plus (Pharmacia). PBMCs were suspended at 2×10^6/mL in DMEM supplemented to contain 2% FCS, 10 mM, 0.3 mg/mL […], 100 U/mL penicillin G and […] streptomycin sulfate (complete media). Cells were plated into Falcon flat bottom, 96 well culture plates (200 μL/well) and cultured overnight at 37° C. and 6% CO2. Non-adherent cells were removed by washing with 200 μl/well of fresh medium. Wells containing adherent cells (˜70% monocytes) were replenished with 100 μL of fresh medium.
Preparation of Test Compound Stock Solutions
Test compounds were dissolved in […]. Compound stock solutions were prepared to an initial concentration of […]. Stocks were diluted initially to 20-200 μM in complete media. Nine two-fold serial dilutions of each compound were then prepared in complete medium.
Treatment of Cells with Test Compounds and Activation of TNF Production with Lipopolysaccharide
One hundred microliters of each test compound dilution were added to microtiter wells containing adherent monocytes and 100 μL complete medium. Monocytes were cultured with test compounds for 60 min at which time 25 μL of complete medium containing 30 ng/mL lipopolysaccharide from E. coli K532 were added to each well. Cells were cultured an additional 4 hrs. Culture supernatants were then removed and TNF presence in the supernatants was quantified using an ELISA.
Flat bottom, 96 well Corning High Binding ELISA plates were coated overnight (4° C.) with 150 μL/well of 3 μg/mL murine anti-human TNF-α MAb (R&D Systems #MAB210). Wells were then blocked for 1 h at room temperature with 200 μL/well of CaCl2-free ELISA buffer supplemented to contain 20 mg/mL BSA (standard ELISA buffer: […], 150 mM NaCl, 2 mM CaCl2, 0.15 mM thimerosal, pH 7.4). Plates were washed and replenished with 100 μL of test supernatants (diluted 1:3) or standards. Standards consisted of eleven 1.5-fold serial dilutions from a stock of 1 ng/mL recombinant human TNF (R&D Systems). Plates were incubated at room temperature for 1 h on orbital shaker (300 rpm), washed and replenished with 100 μL/well of 0.5 μg/mL goat anti-human TNF-α (R&D systems #AB-210-NA) biotinylated at a 4:1 ratio. Plates were incubated for 40 min, washed and replenished with 100 μL/well of alkaline phosphatase-conjugated streptavidin (Jackson ImmunoResearch #016-050-084) at 0.02 μg/mL. Plates were incubated 30 min, washed and replenished with 200 μL/well of 1 mg/mL of p-nitrophenyl phosphate. After 30 min, plates were read at 405 nm on a Vmax plate reader.

Row | SMILES | IC50 [1] [nM] | IC50 [2] [nM] | IC50 [3] [nM]
1 | Cc1ccc(C(=O)NC2CC2)cc1-c1ccc2c(-c3ccc(S(=O)(=O)C(F)(F)F)cc3C)nncc2c1 [Example 233, N-cyclopropyl-4-methyl-3-(1-(2-methyl-4-((trifluoromethyl)sulfonyl)phenyl)-6-phthalazinyl)benzamide] | 2.89 | 0.62 | –
2 | Cc1ccc(C(=O)Nc2ccnn2C)cc1-c1ccc2c(C(C)(C)F)nncc2c1 [Example 249, 3-(1-(1-fluoro-1-methylethyl)-6-phthalazinyl)-4-methyl-N-(1-methyl-1H-pyrazol-5-yl)benzamide] | 0.334 | 1.14 | –
3 | Cc1ccc(C(=O)NC2CC2)cc1-c1ccc2c(C3(C(F)(F)F)CC3)nncc2c1 [Example 225, N-cyclopropyl-4-methyl-3-(1-(1-(trifluoromethyl)cyclopropyl)-6-phthalazinyl)benzamide] | 0.148 | 0.968 | –
4 | Cc1c(F)cc(C(=O)NC2CC2)cc1-c1ccc2c(O[C@@H](C)C(F)(F)F)nncc2c1 [Example 255, N-cyclopropyl-3-fluoro-4-methyl-5-(1-(((1S)-2,2,2-trifluoro-1-methylethyl)oxy)-6-phthalazinyl)benzamide] | 0.307 | 0.592 | –
5 | Cc1ccc(C(=O)NC2CC2)cc1-c1ccc2c(C(C)(C)O)nncc2c1 [Example 248, N-cyclopropyl-3-(1-(1-hydroxy-1-methylethyl)-6-phthalazinyl)-4-methylbenzamide] | 0.826 | 0.812 | –
6 | Cc1ccc(C(=O)Nc2ccnn2C)cc1-c1ccc2c(N3CCOC[C@@H]3C)nncc2c1 [Example 15, 4-methyl-3-(1-((3S)-3-methyl-4-morpholinyl)-6-phthalazinyl)-N-(1-methyl-1H-pyrazol-5-yl)benzamide] | – | – | ≤ 10
7 | CCC(C)c1nncc2cc(-c3cc(C(N)=O)ccc3C)ccc12 (stereo not drawn) [Example 51, 4-methyl-3-(1-(1-methylpropyl)-6-phthalazinyl)benzamide] | – | – | ≤ 10
8 | Cc1ccc(N)cc1-c1ccc2c(O[C@H](C)C(F)(F)F)nncc2c1 [Example 238, 4-methyl-3-(1-(((1R)-2,2,2-trifluoro-1-methylethyl)oxy)-6-phthalazinyl)aniline] | – | – | ≤ 250
9 | Cc1c(F)cc(C(=O)NC2CC2)cc1-c1ccc2c(O[C@H](C)C(F)(F)F)nncc2c1 [Example 254, N-cyclopropyl-3-fluoro-4-methyl-5-(1-(((1R)-2,2,2-trifluoro-1-methylethyl)oxy)-6-phthalazinyl)benzamide] | 0.501 | 0.769 | –
10 | Cc1ccc(C(=O)NC2CC2)cc1-c1ccc2c([C@@H](C)C(F)(F)F)nncc2c1 [Example 227a, N-cyclopropyl-4-methyl-3-(1-((1R)-2,2,2-trifluoro-1-methylethyl)-6-phthalazinyl)benzamide] | 0.455 | 1.08 | –
11 | Cc1c(F)cc(C(=O)NC2CC2)cc1-c1ccc2c(C(C)(C)F)nncc2c1 [Example 253, N-cyclopropyl-3-fluoro-5-(1-(1-fluoro-1-methylethyl)-6-phthalazinyl)-4-methylbenzamide] | 0.168 | 0.696 | –
12 | Cc1ccc(C(=O)Nc2ccnn2C)cc1-c1ccc2c([C@@](C)(O)C(F)(F)F)nncc2c1 [Example 251, 4-methyl-N-(1-methyl-1H-pyrazol-5-yl)-3-(1-((1R)-2,2,2-trifluoro-1-hydroxy-1-methylethyl)-6-phthalazinyl)benzamide] | 0.2 | 0.913 | –
13 | Cc1ccc(C(=O)O)cc1-c1ccc2c(C(C)(C)O)nncc2c1 [Example 247, 3-(1-(1-hydroxy-1-methylethyl)-6-phthalazinyl)-4-methylbenzoic acid] | – | 1000 | –
14 | Cc1ccc(C(=O)Nc2ccn(C)n2)cc1-c1ccc2c(O[C@@H](C)C(F)(F)F)nncc2c1 [Example 72, 4-methyl-N-(1-methyl-1H-pyrazol-3-yl)-3-(1-(((1S)-2,2,2-trifluoro-1-methylethyl)oxy)-6-phthalazinyl)benzamide] | – | – | ≤ 10
15 | Cc1ccc(C(=O)NC(C)C)cc1-c1ccc2c(N3CCC[C@H]3C)nncc2c1 [Example 37, 4-methyl-N-(1-methylethyl)-3-(1-((2R)-2-methyl-1-pyrrolidinyl)-6-phthalazinyl)benzamide] | – | – | ≤ 10
16 | Cc1ccc(C(=O)NC2CC2)cc1-c1ccc2c([C@H](C)C(F)F)nncc2c1 [Example 256, N-cyclopropyl-3-(1-((1S)-2,2-difluoro-1-methylethyl)-6-phthalazinyl)-4-methylbenzamide] | 0.18 | 1.03 | –
17 | Cc1ccc(C(N)=O)cc1-c1ccc2c(O[C@H](C)C(F)(F)F)nncc2c1 [Example 43, 4-methyl-3-(1-(((1R)-2,2,2-trifluoro-1-methylethyl)oxy)-6-phthalazinyl)benzamide] | – | – | ≤ 100
18 | CNC(=O)c1ccc(C)c(-c2ccc3c(O[C@@H](C)C(F)(F)F)nncc3c2)c1 [Example 258, N,4-dimethyl-3-(1-(((1S)-2,2,2-trifluoro-1-methylethyl)oxy)-6-phthalazinyl)benzamide] | 1.75 | – | –
19 | Cc1ccc(C#N)cc1-c1ccc2c(O)nncc2c1 [Example 232, 3-(1-hydroxy-6-phthalazinyl)-4-methylbenzonitrile] | – | 1.33 | –
20 | [2H]c1c([2H])c(C(=O)NC2CC2)c([2H])c(-c2ccc3c(OC(C)C(F)(F)F)nncc3c2)c1C (stereo not drawn) [Example 259, N-cyclopropyl-4-methyl-3-(1-((2,2,2-trifluoro-1-methylethyl)oxy)-6-phthalazinyl)benzamide-d 3] | 1.7 | 0.991 | –
21 | CCNC(=O)c1ccc(C)c(-c2ccc3c(O[C@@H](C)C(F)(F)F)nncc3c2)c1 [Example 257, N-ethyl-4-methyl-3-(1-(((1S)-2,2,2-trifluoro-1-methylethyl)oxy)-6-phthalazinyl)benzamide] | 0.813 | 1.02 | –
22 | Cc1ccc(C(=O)NC2CC2)cc1-c1ccc2c([C@@](C)(O)C(F)(F)F)nncc2c1 [Example 229, N-cyclopropyl-4-methyl-3-(1-((1R)-2,2,2-trifluoro-1-hydroxy-1-methylethyl)-6-phthalazinyl)benzamide] | 0.383 | 0.599 | –
23 | Cc1ccc(C#N)cc1-c1ccc2c(O[C@H](C)C(F)(F)F)nncc2c1 [Example 231, 4-methyl-3-(1-(((1R)-2,2,2-trifluoro-1-methylethyl)oxy)-6-phthalazinyl)benzonitrile] | 33.3 | 80.8 | –
24 | Cc1ccc(C(=O)NC2CC2)cc1-c1ccc2c(C(C)(O)C(F)(F)F)nncc2c1 (stereo not drawn) [Example 244, N-cyclopropyl-4-methyl-3-(1-(2,2,2-trifluoro-1-hydroxy-1-methylethyl)-6-phthalazinyl)benzamide] | 0.434 | 0.952 | –
25 | Cc1ccc(C(=O)Nc2ccnn2C)cc1-c1ccc2c(C(C)(O)C(F)(F)F)nncc2c1 (stereo not drawn) [Example 243, 4-methyl-N-(1-methyl-1H-pyrazol-5-yl)-3-(1-(2,2,2-trifluoro-1-hydroxy-1-methylethyl)-6-phthalazinyl)benzamide] | – | 1.33 | –
26 | Cc1ccc(C(=O)NC2CC2)cc1-c1ccc2c([C@](C)(O)C(F)(F)F)nncc2c1 [Example 230, N-cyclopropyl-4-methyl-3-(1-((1S)-2,2,2-trifluoro-1-hydroxy-1-methylethyl)-6-phthalazinyl)benzamide] | 0.364 | 0.643 | –
27 | Cc1ccc(C(=O)Nc2ccnn2C)cc1-c1ccc2c(C3(C(F)(F)F)CC3)nncc2c1 [Example 226, 4-methyl-N-(1-methyl-1H-pyrazol-5-yl)-3-(1-(1-(trifluoromethyl)cyclopropyl)-6-phthalazinyl)benzamide] | 0.173 | 1.12 | –
28 | Cc1ccc(C(=O)NC2CC2)cc1-c1ccc2c(C(C)(C)F)nncc2c1 [Example 252, N-cyclopropyl-3-(1-(1-fluoro-1-methylethyl)-6-phthalazinyl)-4-methylbenzamide] | 0.242 | 0.745 | –
29 | Cc1ccc(C(=O)Nc2ccnn2C)cc1-c1ccc2c([C@](C)(O)C(F)(F)F)nncc2c1 [Example 250, 4-methyl-N-(1-methyl-1H-pyrazol-5-yl)-3-(1-((1S)-2,2,2-trifluoro-1-hydroxy-1-methylethyl)-6-phthalazinyl)benzamide] | 0.296 | 0.954 | –

— patent publication US8101612B2, “Phthalazine compounds and methods of use” (Amgen Inc., priority 2006, dated 2012)
